Source: patent US11208386B2, “Inhibitors of protein arginine deiminases (PADs) and methods of preparation and use thereof” (University of Massachusetts, priority 2016, dated 2021)

Assays:
Assay type in all cases: biochemical
[1] = molecular target: T1, PAD3 (Homo sapiens, UniProt Q9ULW8); experiment: Inactivation kinetics, PAD3; conditions: for kinact/KI: a: single kobs determined; for Fold PAD3 Selectivity: kinact/KI relative to least inhibited isozyme (1.0)
T1 construct: made in house
T1 sequence (Q9ULW8 1-664): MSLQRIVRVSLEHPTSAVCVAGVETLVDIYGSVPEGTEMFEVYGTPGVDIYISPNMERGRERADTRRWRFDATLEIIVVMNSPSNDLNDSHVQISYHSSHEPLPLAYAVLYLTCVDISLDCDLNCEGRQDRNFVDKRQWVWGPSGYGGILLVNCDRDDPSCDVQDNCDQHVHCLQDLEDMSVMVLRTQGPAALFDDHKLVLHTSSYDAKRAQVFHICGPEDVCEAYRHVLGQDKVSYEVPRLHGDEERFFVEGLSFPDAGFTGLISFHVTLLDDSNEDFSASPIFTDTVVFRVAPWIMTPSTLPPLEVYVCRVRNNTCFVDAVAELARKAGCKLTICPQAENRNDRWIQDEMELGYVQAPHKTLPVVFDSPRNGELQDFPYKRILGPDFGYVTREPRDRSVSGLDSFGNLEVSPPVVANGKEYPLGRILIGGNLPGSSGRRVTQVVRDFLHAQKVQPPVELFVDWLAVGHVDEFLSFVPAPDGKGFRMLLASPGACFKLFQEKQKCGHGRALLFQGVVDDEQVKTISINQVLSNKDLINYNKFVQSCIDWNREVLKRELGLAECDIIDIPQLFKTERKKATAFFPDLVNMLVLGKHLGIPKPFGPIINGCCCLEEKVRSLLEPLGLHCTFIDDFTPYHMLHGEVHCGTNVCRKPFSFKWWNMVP
Procedure: (§1) Inactivation kinetic parameters were determined by incubating PAD1, 2, or 4 (2.0 μM) or PAD3 (5.0 μM) in a pre-warmed (10 min; 37° C.) inactivation mixture (50 mM HEPES, 10 mM CaCl2, and 2 mM DTT, pH 7.6, with a final volume of 60 μL) containing various concentrations of inhibitor. Aliquots were removed at various time points and added to a pre-warmed (10 min, 37° C.) reaction mixture (50 mM HEPES, 50 mM NaCl, 10 mM CaC2, 2 mM DTT, and 10 mM BAEE or 10 mM BAA in the case of PAD3; pH 7.6). After 15 min, reactions were quenched in liquid nitrogen and citrulline production quantified using the COLDER assay. […] In Vitro Labeling of PADs with “Clickable” Probes BB-F-Yne (5u), BB-Cl-Yne (5v) and BIFYne (5w)

[2] = molecular target: T2, PAD1 (Homo sapiens, UniProt Q9ULC6); experiment: Inactivation kinetics, PAD1; conditions: for kinact/KI: a: single kobs determined, b: from a linear fit; for Fold PAD1 Selectivity: kinact/KI relative to least inhibited isozyme (1.0)
T2 construct: made in house
T2 sequence (Q9ULC6 1-663): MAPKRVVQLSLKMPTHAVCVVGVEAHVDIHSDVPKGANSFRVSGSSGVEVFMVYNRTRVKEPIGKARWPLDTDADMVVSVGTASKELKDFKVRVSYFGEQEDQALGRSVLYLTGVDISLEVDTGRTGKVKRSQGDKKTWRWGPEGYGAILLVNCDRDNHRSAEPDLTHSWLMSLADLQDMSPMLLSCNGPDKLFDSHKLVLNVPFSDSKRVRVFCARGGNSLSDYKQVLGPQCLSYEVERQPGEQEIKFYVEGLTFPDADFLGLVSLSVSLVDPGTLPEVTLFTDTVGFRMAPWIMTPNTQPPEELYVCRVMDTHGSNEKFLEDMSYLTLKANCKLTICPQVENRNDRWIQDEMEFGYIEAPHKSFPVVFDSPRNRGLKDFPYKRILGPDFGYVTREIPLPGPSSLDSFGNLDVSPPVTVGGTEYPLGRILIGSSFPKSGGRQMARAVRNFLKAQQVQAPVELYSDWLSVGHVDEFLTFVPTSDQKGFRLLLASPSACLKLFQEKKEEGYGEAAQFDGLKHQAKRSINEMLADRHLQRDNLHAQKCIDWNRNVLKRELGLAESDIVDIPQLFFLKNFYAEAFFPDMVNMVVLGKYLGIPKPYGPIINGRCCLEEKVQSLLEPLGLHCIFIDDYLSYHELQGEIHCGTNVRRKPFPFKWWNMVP
Procedure: as §1

[3] = molecular target: T3, PAD4 (Homo sapiens, UniProt Q9UM07); experiment: Inactivation kinetics, PAD4; conditions: for kinact/KI: a: single kobs determined, b: from a linear fit; for Fold PAD4 Selectivity: kinact/KI relative to least inhibited isozyme (1.0)
T3 construct: made in house
T3 sequence (Q9UM07 whole entry): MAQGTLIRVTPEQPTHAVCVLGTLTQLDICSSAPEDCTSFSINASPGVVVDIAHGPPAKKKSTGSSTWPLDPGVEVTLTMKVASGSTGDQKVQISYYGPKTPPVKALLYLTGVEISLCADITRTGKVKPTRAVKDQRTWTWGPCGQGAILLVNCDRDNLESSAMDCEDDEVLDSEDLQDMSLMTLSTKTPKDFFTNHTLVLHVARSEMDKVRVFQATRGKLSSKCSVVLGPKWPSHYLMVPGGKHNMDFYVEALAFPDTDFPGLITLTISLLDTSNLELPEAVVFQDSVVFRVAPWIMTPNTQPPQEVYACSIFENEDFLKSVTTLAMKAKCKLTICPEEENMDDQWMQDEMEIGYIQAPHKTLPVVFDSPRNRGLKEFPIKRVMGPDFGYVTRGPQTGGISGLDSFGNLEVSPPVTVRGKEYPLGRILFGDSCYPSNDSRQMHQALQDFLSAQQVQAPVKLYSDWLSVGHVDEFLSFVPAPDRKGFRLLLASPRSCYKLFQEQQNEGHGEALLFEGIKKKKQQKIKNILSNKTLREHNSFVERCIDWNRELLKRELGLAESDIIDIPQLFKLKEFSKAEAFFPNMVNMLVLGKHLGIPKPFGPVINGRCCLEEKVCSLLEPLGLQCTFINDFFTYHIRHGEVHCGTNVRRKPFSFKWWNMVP
Procedure: as §1

[4] = molecular target: T4, PAD2 (Homo sapiens, UniProt Q9Y2J8); experiment: Inactivation kinetics, PAD2; conditions: for kinact/KI: a: single kobs determined, b: from a linear fit, other footnotes: from kinact and KI; for Fold PAD2 Selectivity: kinact/KI relative to least inhibited isozyme (1.0); for Ki / kinact: PAD2, table footnote
T4 construct: made in house
T4 sequence (Q9Y2J8 whole entry): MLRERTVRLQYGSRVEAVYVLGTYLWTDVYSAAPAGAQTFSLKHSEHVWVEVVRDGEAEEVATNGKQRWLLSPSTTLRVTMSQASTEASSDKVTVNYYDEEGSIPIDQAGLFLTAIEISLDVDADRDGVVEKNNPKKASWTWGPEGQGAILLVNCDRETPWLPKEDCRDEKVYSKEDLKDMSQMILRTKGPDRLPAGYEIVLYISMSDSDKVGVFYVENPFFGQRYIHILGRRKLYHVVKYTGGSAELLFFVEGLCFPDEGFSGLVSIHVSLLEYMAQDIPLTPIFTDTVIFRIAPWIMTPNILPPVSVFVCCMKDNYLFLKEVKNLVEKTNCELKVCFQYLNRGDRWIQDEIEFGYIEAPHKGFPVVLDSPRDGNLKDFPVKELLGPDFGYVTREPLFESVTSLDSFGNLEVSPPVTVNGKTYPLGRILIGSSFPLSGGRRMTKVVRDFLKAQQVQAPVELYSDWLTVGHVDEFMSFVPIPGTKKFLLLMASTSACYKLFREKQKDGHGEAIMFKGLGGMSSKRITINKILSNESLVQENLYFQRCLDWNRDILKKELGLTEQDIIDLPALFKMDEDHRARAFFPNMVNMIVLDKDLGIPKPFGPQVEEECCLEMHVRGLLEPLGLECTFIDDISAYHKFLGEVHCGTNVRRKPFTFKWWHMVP
Procedure: as §1

| SMILES | kinact/KI [1] | Fold PAD3 Selectivity [1] | kinact/KI [2] | Fold PAD1 Selectivity [2] | kinact/KI [3] | Fold PAD4 Selectivity [3] | kinact/KI [4] | Fold PAD2 Selectivity [4] | Ki [4] | kinact [4] |
| --- | --- | --- | --- | --- | --- | --- | --- | --- | --- | --- |
| COc1ccc2c(c1)nc([C@H](CCCNC(=N)CCl)NC(=O)c1cccc3c1C(=O)NC3)n2C [Compound 7p, N1-(3-oxoisoindoline)benzoyl-N5-(2-chloro-1-iminoethyl)-1-(5-methoxy-1-methyl-benzo[d]imidazol-2-yl)-L-ornithine] | 218 M⁻¹ s⁻¹ | 2.4 fold | 2210 M⁻¹ s⁻¹ | 25 fold | 90.2 M⁻¹ s⁻¹ | 1.0 fold | 908 M⁻¹ s⁻¹ | 10 fold | – | – |
| N=C(CCl)NCCC[C@H](NC(=O)c1ccc(-c2ccccc2)cc1)c1nc2cc(F)c(F)cc2[nH]1 [Compound 5r, N1-[1,1′-Phenyl]benzoyl-N5-(2-chloro-1-iminoethyl)-1-(5,6-difluoro-1H-benzo[d]imidazol-2-yl)-L-ornithine] | 239 M⁻¹ s⁻¹ | 2.6 fold | 457 M⁻¹ s⁻¹ | 4.9 fold | 337 M⁻¹ s⁻¹ | 3.6 fold | 93.3 M⁻¹ s⁻¹ | 1.0 fold | – | – |
| CC(C)n1c([C@H](CCCNC(=N)CF)NC(=O)c2cccc3c2C(=O)NC3)nc2ccccc21 [Compound 7g, N1-(3-oxoisoindoline)benzol-N5-(2-fluoro-1-iminoethyl)-1-(1-isopropyl-benzo[d]imidazol-2-yl)-L-ornithine] | 8.5 M⁻¹ s⁻¹ | 1.0 fold | 104 M⁻¹ s⁻¹ | 12 fold | 20.5 M⁻¹ s⁻¹ | 2.4 fold | 172 M⁻¹ s⁻¹ | 20 fold | – | – |
| CC(C)n1c([C@H](CCCNC(=N)CCl)NC(=O)c2ccc(-c3ccccc3)cc2)nc2ccccc21 [Compound 5l, N1-[1,4′-Phenyl]benzoyl-N5-(2-chloro-1-iminoethyl)-1-(1-isopropyl-benzo[d]imidazol-2-yl)-L-ornithine] | 192 M⁻¹ s⁻¹ | 12 fold | 20.3 M⁻¹ s⁻¹ | 1.3 fold | 15.8 M⁻¹ s⁻¹ | 1.0 fold | 24.8 M⁻¹ s⁻¹ | 1.6 fold | – | – |
| Cn1c([C@H](CCCNC(=N)CCl)NC(=O)c2cccc3c2C(=O)NC3)nc2ccccc21 [Compound 7d, N1-(3-oxoisoindoline)benzol-N5-(2-chloro-1-iminoethyl)-1-(1-methyl-benzo[d]imidazol-2-yl)-L-ornithine] | 808 M⁻¹ s⁻¹ | 2.0 fold | 2430 M⁻¹ s⁻¹ | 61 fold | 398 M⁻¹ s⁻¹ | 1.0 fold | 1220 M⁻¹ s⁻¹ | 3.1 fold | – | – |
| N=C(CF)NCCC[C@H](NC(=O)c1ccc(-c2ccc(F)cc2)cc1)c1nc2ccccc2[nH]1 [Compound 5o] | 27 M⁻¹ s⁻¹ | 1.2 fold | 23.3 M⁻¹ s⁻¹ | 1.0 fold | 53.3 M⁻¹ s⁻¹ | 2.3 fold | 28.3 M⁻¹ s⁻¹ | 1.2 fold | – | – |
| CCn1c([C@H](CCCNC(=N)CCl)NC(=O)c2ccc(-c3ccccc3)cc2)nc2ccccc21 [Compound 5j, N1-[1,4′-Phenyl]benzoyl-N5-(2-chloro-1-iminoethyl)-1-(1-ethyl-benzo[d]imidazol-2-yl)-L-ornithine] | 284 M⁻¹ s⁻¹ | 4.1 fold | 84.3 M⁻¹ s⁻¹ | 1.2 fold | 69.2 M⁻¹ s⁻¹ | 1.0 fold | 80.8 M⁻¹ s⁻¹ | 1.2 fold | – | – |
| COc1ccc2c(c1)nc([C@H](CCCNC(=N)CF)NC(=O)c1cccc3c1C(=O)NC3)n2C [Compound 7o, N1-(3-oxoisoindoline)benzoyl-N5-(2-fluoro-1-iminoethyl)-1-(5-methoxy-1-methyl-benzo[d]imidazol-2-yl)-L-ornithine] | 17.2 M⁻¹ s⁻¹ | 1.0 fold | 2080 M⁻¹ s⁻¹ | 121 fold | 20.5 M⁻¹ s⁻¹ | 1.2 fold | 1960 M⁻¹ s⁻¹ | 114 fold | 20.7 µM | 0.0403 s⁻¹ |

More lines, now with the values ahead:

| kinact/KI [1] | Fold PAD3 Selectivity [1] | kinact/KI [2] | Fold PAD1 Selectivity [2] | kinact/KI [3] | Fold PAD4 Selectivity [3] | kinact/KI [4] | Fold PAD2 Selectivity [4] | Ki [4] | kinact [4] | SMILES |
| --- | --- | --- | --- | --- | --- | --- | --- | --- | --- | --- |
| 20.8 M⁻¹ s⁻¹ | 1.0 fold | 402 M⁻¹ s⁻¹ | 19 fold | 20.7 M⁻¹ s⁻¹ | 1.0 fold | 677 M⁻¹ s⁻¹ | 33 fold | – | – | CCN1Cc2cccc(C(=O)N[C@@H](CCCNC(=N)CF)c3nc4ccccc4n3CC)c2C1=O [Compound 8e, N1-(2-ethyl-3-oxoisoindoline)benzoyl-N5-(2-fluoro-1-iminoethyl)-1-(1-ethyl-benzo[d]imidazol-2-yl)-L-ornithine] |
| 26.7 M⁻¹ s⁻¹ | 3.4 fold | 78.3 M⁻¹ s⁻¹ | 10 fold | 7.83 M⁻¹ s⁻¹ | 1.0 fold | 173 M⁻¹ s⁻¹ | 22 fold | – | – | CCN1Cc2cccc(C(=O)N[C@@H](CCCNC(=N)CF)c3nc4ccccc4n3C(C)C)c2C1=O [Compound 8g, N1-(2-ethyl-3-oxoisoindoline)benzol-N5-(2-fluoro-1-iminoethyl)-1-(1-isopropyl-benzo[d]imidazol-2-yl)-L-ornithine] |
| 23.3 M⁻¹ s⁻¹ | 2.0 fold | 652 M⁻¹ s⁻¹ | 28 fold | 46.7 M⁻¹ s⁻¹ | 1.0 fold | 933 M⁻¹ s⁻¹ | 40 fold | 23.4 µM | 0.0218 s⁻¹ | CCN1Cc2cccc(C(=O)N[C@@H](CCCNC(=N)CF)c3nc4c(OC)cccc4n3CC)c2C1=O [Compound 8u, N1-(2-ethyl-3-oxoisoindoline)benzoyl-N5-(2-fluoro-1-iminoethyl)-1-(4-methoxy-1-ethyl-benzo[d]imidazol-2-yl)-L-ornithine] |
| 583 M⁻¹ s⁻¹ | 1.0 fold | 2530 M⁻¹ s⁻¹ | 4.3 fold | 810 M⁻¹ s⁻¹ | 1.4 fold | 888 M⁻¹ s⁻¹ | 1.5 fold | – | – | CCN1Cc2cccc(C(=O)N[C@@H](CCCNC(=N)CCl)c3nc4ccccc4[nH]3)c2C1=O [Compound 8b, N1-(2-ethyl-3-oxoisoindoline)benzol-N5-(2-chloro-1-iminoethyl)-1-(1H-benzo[d]imidazol-2-yl)-L-ornithine] |
| 247 M⁻¹ s⁻¹ | 1.0 fold | 963 M⁻¹ s⁻¹ | 3.9 fold | 323 M⁻¹ s⁻¹ | 1.3 fold | 1240 M⁻¹ s⁻¹ | 5.0 fold | – | – | CCN1Cc2cccc(C(=O)N[C@@H](CCCNC(=N)CCl)c3nc4c(OC)cccc4n3C)c2C1=O [Compound 8l, N1-(2-ethyl-3-oxoisoindoline)benzoyl-N5-(2-chloro-1-iminoethyl)-1-(4-methoxy-1-methyl-benzo[d]imidazol-2-yl)-L-ornithine] |
